Test results: US20260274892A1, “MACROCYCLIC BROAD SPECTRUM ANTIBIOTICS” (RQx Pharmaceuticals, Inc., priority 2017, published 2026)

Key:
[1] = tested on: Escherichia coli ATCC 25922; test: Minimum inhibitory concentration (MIC), CLSI broth micro-dilution, E. coli; assay type: cell-based; conditions: Escherichia coli, ATCC25922, 22 h
Summary of the method: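 Antibacterial potency is measured as MIC by the CLSI broth dilution method. Bacteria at OD600 0.0005 in Tween-80-supplemented cation-adjusted Mueller Hinton broth face ten twofold compound dilutions for 22 h at 35° C.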

[2] = tested on: Methicillin Resistant Staphylococcus aureus strain USA 200; test: Minimum inhibitory concentration (MIC), CLSI broth micro-dilution, S. aureus; assay type: cell-based; conditions: Staphylococcus aureus, MRSA / USA200, MRSA USA 200, cation adjusted Mueller Hinton Broth + 0.002% Tween-80, 35° C., 22 hours
Procedure: In vitro antimicrobial activity of each compound was determined by measuring minimal inhibitor concentrations (MICs) using the broth micro-dilution technique as approved by the Clinical and Laboratory Standards Institute (CLSI) (Methods for Dilution Antimicrobial Susceptibility Tests for Bacteria that Grow Aerobically; Approved Standard-Eighth Edition. CLSI document M07-A8. Wayne, PA: Clinical and Laboratroy Standards; 2009). Antibacterial activity was measure against two strains of bacteria: a Methicillin Resistant Staphylococcus aureus strain USA 200, (S. aureus) and Escherichia coli ATCC 25922 (E. coli), a clinically relevant Gram-negative strain. Cells were inoculated onto plates of Trypyticase Soy Agar or Luria Agar respectively and grown at 35° C. for 20 hours. Inocula suspensions were prepared by scraping cells into 1 mL of testing media (cation adjusted Mueller Hinton Broth supplemented with 0.002% v/v Tween-80) and diluting to a final OD600nm of 0.01.
Test compounds were prepared in DMSO at a concentration of 10 mg/mL. In protocol 1, the compound stocks were diluted into testing media at a concentration of 64 µg/ml and serial 2-fold dilutions were made in the same media, in 96-well U bottom microtiter dishes, for a total of 10 compound concentrations. In protocol 2, the compound stocks were diluted into testing media at a concentration of 4 µg/mL and serial 2-fold dilutions were made in the same media, in 96-well U bottom microtiter dishes, for a total of 10 compound concentrations. In protocol 3, compound stocks were diluted into testing media at a concentration of 0.5 μg/mL, with serial 2-fold dilutions conducted as described above. In protocol 4, compound stocks were diluted into testing media at a concentration of […], with serial 2-fold dilutions conducted as described above. Inocula suspensions were added to the 2-fold serial dilutions of test compounds to a final density of GD OD600nm of 0.0005 and incubated at 35° C. for 22 hours.

[3] = Table 6, cation adjusted Mueller Hinton Broth + 0.002% Tween-80, 35° C.

Row | Compound | MIC [1, 3] [µM] | MIC ([2]; Table 6) [µM] | MIC ([1]; Table 8, cation adjusted Mueller Hinton Broth + 0.002% Tween-80, 35° C.) [µM] | MIC ([2]; Table 8) [µM]
1 | CCCCCCc1ccc2cc(C)c(C(=O)N[C@@H](CCN)C(=O)N(C)[C@@H]3C(=O)N[C@@H](C)C(=O)N[C@H](C(=O)NCC#N)Cc4ccc(OCCN)c(c4)-c4cc3ccc4OCCN)cc2c1 (racemic) [Compound 400, rac-(8S,11S,14S)-3,18-bis(2-aminoethoxy)-N-(cyanomethyl)-11-methyl-14-[methyl-[rac-(2S)-4-amino-2-[(7-hexyl-3-methyl-naphthalene-2-carbonyl)amino]butanoyl]amino]-10,13-dioxo-9,12-diazatricyclo[13.3.1.12,6]icosa-1(18),2(20),3,5,15(19),16-hexaene-8-carboxamide] | 0.25 | 0.047 |  | 
2 | Cc1nc(-c2ccc(C(C)(C)C)cc2O)nc(C)c1C(=O)N[C@@H](CCN)C(=O)N(C)[C@@H]1C(=O)N[C@@H](C)C(=O)N[C@H](C(=O)NCC#N)Cc2ccc(OCCN)c(c2)-c2cc1ccc2OCCN (racemic) [Compound 298, rac-(8S,11S,14S)-3,18-bis(2-aminoethoxy)-N-(cyanomethyl)-11-methyl-14-[methyl-[rac-(2S)-4-amino-2-[[2-(4-tert-butyl-2-hydroxy-phenyl)-4,6-dimethyl-pyrimidine-5-carbonyl]amino]butanoyl]amino]-10,13-dioxo-9,12-diazatricyclo[13.3.1.12,6]icosa-1(18),2(20),3,5,15(19),16-hexaene-8-carboxamide] | 0.13 | 0.016 |  | 
3 | CNc1nc(-c2ccc(C(C)(C)C)cc2)nc(C)c1C(=O)N[C@@H](CCN)C(=O)N(C)[C@@H]1C(=O)N[C@@H](C)C(=O)N[C@H](C(=O)NCC#N)Cc2ccc(OCCN)c(c2)-c2cc1ccc2OCCN (racemic) [Compound 425, rac-(8S,11S,14S)-3,18-bis(2-aminoethoxy)-N-(cyanomethyl)-11-methyl-14-[methyl-[rac-(2S)-4-amino-2-[[2-(4-tert-butylphenyl)-4-methyl-6-(methylamino)pyrimidine-5-carbonyl]amino]butanoyl]amino]-10,13-dioxo-9,12-diazatricyclo[13.3.1.12,6]icosa-1(18),2(20),3,5,15(19),16-hexaene-8-carboxamide] | 0.19 | 0.016 |  | 
4 | Cc1nc(-c2ccc(C(C)(C)C)cc2)nc(C)c1C(=O)N[C@@H](CCN)C(=O)N(C)[C@@H]1C(=O)N[C@@H](C)C(=O)N[C@H](C(=O)O)Cc2ccc(O)c(c2)-c2cc1ccc2OCCN (racemic) [Compound 646, rac-(8S,11S,14S)-18-(2-aminoethoxy)-3-hydroxy-11-methyl-14-[methyl-[rac-(2S)-4-amino-2-[[2-(4-tert-butylphenyl)-4,6-dimethyl-pyrimidine-5-carbonyl]amino]butanoyl]amino]-10,13-dioxo-9,12-diazatricyclo [13.3.1.12,6]icosa-1(18),2(20),3,5,15(19), 16-hexaene-8-carboxylic acid] |  |  | 0.37 | 1.1
5 | CCCCCCc1ccc(C(=O)N[C@@H](CCN)C(=O)N(CCN)[C@@H]2C(=O)N[C@@H](C)C(=O)N[C@H](C(=O)NCC#N)Cc3ccc(O)c(c3)-c3cc2ccc3O)c(C)c1 (racemic) [Compound 474, rac-(8S,11S,14S)-14-[2-aminoethyl-[rac-(2S)-4-amino-2-[(4-hexyl-2-methyl-benzoyl)amino]butanoyl]amino]-N-(cyanomethyl)-3,18-dihydroxy-11-methyl-10,13-dioxo-9,12-diazatricyclo[13.3.1.12,6]icosa-1(18),2(20),3,5,15(19),16-hexaene-8-carboxamide] | 4.8 | 0.11 |  | 
6 | CCc1nc(-c2ccc(CC(C)C)cc2)ncc1C(=O)N[C@@H](CCN)C(=O)N(C)[C@@H]1C(=O)N[C@@H](C)C(=O)N[C@H](C(=O)NCC#N)Cc2ccc(OCCN)c(c2)-c2cc1ccc2OCCN (racemic) [Compound 417, rac-(8S,11S,14S)-3,18-bis(2-aminoethoxy)-N-(cyanomethyl)-11-methyl-14-[methyl-[rac-(2S)-4-amino-2-[[4-ethyl-2-(4-isobutylphenyl)pyrimidine-5-carbonyl]amino]butanoyl]amino]-10,13-dioxo-9,12-diazatricyclo[13.3.1.12,6]icosa-1(18),2(20),3,5,15(19),16-hexaene-8-carboxamide] | 0.13 | 0.0062 |  | 
7 | C[C@@H]1NC(=O)[C@@H](N(C)C(=O)[C@H](CCN)NC(=O)c2cnc(-c3ccc(C(C)(C)C)cc3)c(=O)n2C)c2ccc(OCCN)c(c2)-c2cc(ccc2OCCN)C[C@@H](C(=O)NCC#N)NC1=O (racemic) [Compound 386, rac-(8S,11S,14S)-3,18-bis(2-aminoethoxy)-N-(cyanomethyl)-11-methyl-14-[methyl-[rac-(2S)-4-amino-2-[[5-(4-tert-butylphenyl)-1-methyl-6-oxo-pyrazine-2-carbonyl]amino]butanoyl]amino]-10,13-dioxo-9,12-diazatricyclo[13.3.1.12,6]icosa-1(18),2(20),3,5,15(19),16-hexaene-8-carboxamide] | 8 | 0.75 |  | 
8 | Cc1nc2ccc(Oc3ccc(C(C)(C)C)cc3)cc2cc1C(=O)N[C@@H](CCN)C(=O)N(C)[C@@H]1C(=O)N[C@@H](C)C(=O)N[C@H](C(=O)NCC#N)Cc2ccc(OCCN)c(c2)-c2cc1ccc2OCCN (racemic) [Compound 397, rac-(8S,11S,14S)-3,18-bis(2-aminoethoxy)-N-(cyanomethyl)-11-methyl-14-[methyl-[rac-(2S)-4-amino-2-[[6-(4-tert-butylphenoxy)-2-methyl-quinoline-3-carbonyl]amino]butanoyl]amino]-10,13-dioxo-9,12-diazatricyclo[13.3.1.12,6]icosa-1(18),2(20),3,5,15(19),16-hexaene-8-carboxamide] | 0.38 | 0.023 |  | 

More lines, in order of falling MIC [1, 3], values ahead:

Row | MIC [1, 3] [µM] | MIC ([2]; Table 6) [µM] | MIC ([1]; Table 8, cation adjusted Mueller Hinton Broth + 0.002% Tween-80, 35° C.) [µM] | MIC ([2]; Table 8) [µM] | Compound
9 | 1 | 0.063 |  |  | Cc1nc(-c2ccc(OC3CCCCC3)cc2)nc(C)c1C(=O)N[C@@H](CCNC(N)=O)C(=O)N(C)[C@@H]1C(=O)N[C@@H](C)C(=O)N[C@H](C(=O)NCC#N)Cc2ccc(OCCN)c(c2)-c2cc1ccc2OCCN [Compound 498, (8S,11S,14S)-3,18-bis(2-aminoethoxy)-N-(cyanomethyl)-14-[[(2S)-2-[[2-[4-(cyclohexoxy)phenyl]-4,6-dimethyl-pyrimidine-5-carbonyl]amino]-4-ureido-butanoyl]-methyl-amino]-11-methyl-10,13-dioxo-9,12-diazatricyclo[13.3.1.12,6]icosa-1(18),2(20),3,5,15(19),16-hexaene-8-carboxamide]
10 | 0.5 | 0.0078 |  |  | CCCCCCc1ccc2nc(C)c(C(=O)N[C@@H](CCN)C(=O)N(C)[C@@H]3C(=O)N[C@@H](C)C(=O)N[C@H](C(=O)NCC#N)Cc4ccc(OCCN)c(c4)-c4cc3ccc4OCCN)c(C)c2c1 (racemic) [Compound 399, rac-(8S,11S,14S)-3,18-bis(2-aminoethoxy)-N-(cyanomethyl)-11-methyl-14-[methyl-[rac-(2S)-4-amino-2-[(6-hexyl-2,4-dimethyl-quinoline-3-carbonyl)amino]butanoyl]amino]-10,13-dioxo-9,12-diazatricyclo[13.3.1.12,6]icosa-1(18),2(20),3,5,15(19),16-hexaene-8-carboxamide]
11 | 0.19 | 0.031 |  |  | Cc1cc(-c2ccc(C(C)(C)C)cc2)cc(C)c1C(=O)N[C@@H](CCN)C(=O)N(C)[C@@H]1C(=O)N[C@@H](C)C(=O)N[C@H](C(=O)NCC#N)Cc2ccc(OCCN)c(c2)-c2cc1ccc2OCCN (racemic) [Compound 370, rac-(8S,11S,14S)-3,18-bis(2-aminoethoxy)-N-(cyanomethyl)-11-methyl-14-[methyl-[rac-(2S)-4-amino-2-[[4-(4-tert-butylphenyl)-2,6-dimethyl-benzoyl]amino]butanoyl]amino]-10,13-dioxo-9,12-diazatricyclo[13.3.1.12,6]icosa-1(18),2(20),3,5,15(19),16-hexaene-8-carboxamide]
12 | 0.094 | 0.0078 |  |  | CCC/C=C/c1ccc(-c2nc(C)c(C(=O)N[C@@H](CCN)C(=O)N(C)[C@@H]3C(=O)N[C@@H](C)C(=O)N[C@H](C(=O)NCC#N)Cc4ccc(OCCN)c(c4)-c4cc3ccc4OCCN)c(C)n2)cc1 (racemic) [Compound 278, rac-(8S,11S,14S)-3,18-bis(2-aminoethoxy)-N-(cyanomethyl)-11-methyl-14-[methyl-[rac-(2S)-4-amino-2-[[4,6-dimethyl-2-[4-[rac-(E)-pent-1-enyl]phenyl]pyrimidine-5-carbonyl]amino]butanoyl]amino]-10,13-dioxo-9,12-diazatricyclo[13.3.1.12,6]icosa-1(18),2(20),3,5,15(19),16-hexaene-8-carboxamide]
